Laboratory results taken from patent US8008077B2, “Photochemical internalization for delivery of molecules into the cytosol” (priority 2000, dated 2011).

How the values were obtained:
THX cells = assay: Gelonin toxicity after photochemical treatment, protein synthesis by [3H]-leucine incorporation, THX cells; assay type: cell-based, human
Method: THX cells were incubated with 20 μg/ml AlPcS2a for 18 hours followed by 4 hours in sensitizer-free medium before exposure to light. The cells were either co-treated with AlPcS2a and 1 μg/ml gelonin, or gelonin (1 μg/ml) was added to the medium immediately after light exposure for 18 hours after which it was removed from the medium as indicated on FIG. 3. Protein synthesis was measured 24 hours after light exposure.
(§1) For the treatment with gelonin 25×10^3 cells per well were seeded out into 24-well plates (Nunc, Denmark). The next day 20 μg/ml AlPcS2a was added, and the cells were incubated for 18 h at 37° C. All the procedures after AlPcS2a addition were carried out in subdued light. For the “light before” strategy, the cells were washed from AlPcS2a and incubated in AlPcS2a-free medium for 4 h. Then the cells were exposed to light (as indicated in the figures) before the treatment with 1 μg/ml gelonin for 18 h. For the “light after” strategy the cells were co-incubated with 20 μg/ml AlPcS2a and 1 μg/ml gelonin for 18 h, and washed before exposure to light as indicated in the figure.
(§2) Non-illuminated cells were treated in a similar way except for illumination. The treated cells were washed once with culture medium and after addition of fresh medium incubated at 37° C. before further analysis. Inhibition of protein synthesis was assayed by [^3H]-leucine incorporation into protein 24 h after light exposure. Illumination was performed from a bench with four light tubes (Philips TL 20W/09) and a long pass filter with a cut off at 550-600 nm. The light intensity reaching the cells was 13.5 W/m^2.

HCT 116 cells = assay: Gelonin toxicity after photochemical treatment, protein synthesis by [3H]-leucine incorporation, HCT 116 cells; assay type: cell-based, human; conditions: 1 μg/ml gelonin 18 h
Method: as §1, §2

[1] = system: WiDr human adenocarcinoma; assay: PCI with gelonin for treatment of tumours in a mouse in vivo model; design: species or system Balb/c (nu/nu) mice; conditions: for effect on tumour cure, in words: gelonin alone; for % TUMOUR-FREE MICE 30 DAYS AFTER ILLUMINATION / FRACTION TUMOUR-FREE MICE 30 DAYS AFTER ILLUMINATION: AlPcS2a 10 mg/kg i.p., gelonin 50 μg intratumorally where given
Method: Water and food was given ad libitum. All procedures involving mice were carried out in agreement with the protocols approved by the animal care committee at the Norwegian Radium Hospital, under control by the National Ethical Committee's guidelines on animal welfare. The mice were on average 20-25 g (5-8 weeks old) at the start of the experiments, and we used at least 5 mice per experiment group. The WiDr human adenocarcinoma used in the present study, was propagated by serial transplantation into the Balb/c (nu/nu) mice. The tumours were minced to homogeneity by a scalpel and 20 μl of the solution injected subcutaneously on the right hip of each mouse. The tumour size was measured two or three times per week by measuring two perpendicular diameters. Tumour volume was calculated using the following formula: V=(W^2×L)/2 where W is the width and L the length diameters of the tumours measured. Treatment
A stock solution of AlPcS2a was diluted to 1.25 mg/ml in PBS and injected intraperitoneally to a final concentration of 10 mg/kg when the tumours had reached a volume of approximately 100 mm^3. 48 h after the injection of AlPcS2a the tumours were exposed for 16 min to red light (see below). Immediately after light exposure gelonin (50 μg total amount in a 2 mg/ml solution, i.e. 25 μl) was injected intratumorally. The mice were kept in the dark for 1 week after the injection of AlPcS2a.
The tumours were illuminated with a 150 W halogen lamp (Xenophot HLX64640) filtered with a 580 nm long pass and a 700 nm short pass filter emitting 150 mW/cm^2. The animals were covered with aluminium foil except above the tumour area where a hole in the foil with a diameter 2 mm larger than the tumour diameter had been made. The tumours were exposed to 145 J/cm^2 of light. Tumour volumes were measured two or three times per week as described above. Mice were killed when the tumours reach a diameter of approximately 20 mm. The fraction of tumour-free mice 30 days after illumination was scored (Table 1), and the mean tumour volume in each treatment group was recorded (FIG. 25).

V-79 cells = assay: PCI cell killing by bleomycin, cell survival by MTT assay; assay type: cell-based, Chinese hamster; conditions: light before
Method: The Chinese hamster lung fibroblast cell line V-79 was used in this study.
The cells (75 000 cells/well, 1 ml/well) were seeded into 12-well plates (Costar Corning, N.Y., USA) and allowed to attach for 6 h. To some of the wells 1 ml medium with 0.7 μg/ml TPPS2a was added (see Table 1), and the cells were incubated for 18 h (5% v/v CO2, 37° C.) The cells were washed three times with medium. The cells were then incubated in serum-containing medium for 4 h. The medium was removed, new medium was added and the cells were illuminated by exposure to light from a box containing a bank of four fluorescent tubes (Osram 18W/67) with the highest fluence around 420 nm.
Different doses of bleomycin were immediately added. After 1 or 4 h incubation with bleomycin the cells were washed once with RPMI-medium, 1 ml of medium was added and after 3 days of incubation cell survival was measured by the MTT assay. This method is based on reduction of a water-soluble tetrazolium salt (MTT) to a purple, insoluble formazan product by mitochondrial dehydrogenases present in living, metabolically active cells. […] The solution is transferred to a 96 wells plate which is read by a Multiskan EX microplate reader (Labsystems, Finland) with a 570 nm bandpass filter. Cell survival is calculated as percent of control cells not receiving light treatment.

[2] = with light (145 J/cm^2; "light before" gelonin)

Gelonin: plant toxin which efficiently inhibits protein synthesis when it is present in the cytosol of cells
toxic effect of gelonin in itself without the PCI treatment (THX cells; 1 μg/ml gelonin 18 h): no toxic effect | inhibition of protein synthesis compared with photochemical treatment in the absence of gelonin (THX cells; 1 μg/ml gelonin before or after photochemical treatment (20 μg/ml AlPcS2a + light), 24 h after light): significantly greater inhibition of protein synthesis | "light before" strategy compared with "light after" method, inhibition of protein synthesis (THX cells; 20 μg/ml AlPcS2a, 1 μg/ml gelonin 18 h): works better | inhibition of protein synthesis, "light before" relative to "light after" (THX cells; highest light dose): about 3 fold | toxic effect of gelonin in itself without the PCI treatment (HCT 116 cells): no toxic effect | "light before" strategy compared with "light after" method, inhibition of protein synthesis (HCT 116 cells; 20 μg/ml AlPcS2a): works better | effect on tumour cure, in words ([1]; with additional light treatment, without AlPcS2a (group 4)): no effect | effect on tumour cure, in words ([1]; without light (group 3)): no effect | % TUMOUR-FREE MICE 30 DAYS AFTER ILLUMINATION [1, 2]: 0% | FRACTION TUMOUR-FREE MICE 30 DAYS AFTER ILLUMINATION [1, 2]: 0/5 | tumour growth (mean tumour volume) ([1]; without light): grew as fast as in animals given a placebo treatment | % TUMOUR-FREE MICE 30 DAYS AFTER ILLUMINATION ([1]; without light): 0% | FRACTION TUMOUR-FREE MICE 30 DAYS AFTER ILLUMINATION ([1]; without light): 0/8

bleomycin
light-induced effect on cytotoxicity (cell survival, MTT) (V-79 cells; 100 μM bleomycin, 1 or 4 h, with 0.7 μg/ml TPPS2a): substantial light-induced increase in the cytotoxicity | light-induced effect on cell survival (MTT) (V-79 cells; lowest dose of bleomycin (5 μM, 1 h), with TPPS2a): lack of effect
